The values below come from patent US12103916B2, “Antifungal compounds” (University of Kentucky Research Foundation, priority 2016, dated 2024).

For assay [1], the system named is Aspergillus terreus ATCC MYA-3633. Conditions: Table 1; strain M; control azoles; previously reported (refs 5, 16); cited from earlier work.
Assay [2] deals with C. glabrata ATCC 2001 (strain H). Briefly: Time-kill assay, strain H. Conditions: Ex.2 series, compound at 4×MIC, VOR control. The assay is classed as cell-based, Candida glabrata. As to the method: FIG. 9A-9D include Representative time-kill curves for compound 20 against FIG. 9A. C. albicans ATCC 10231 (strain A) and FIG. 9B. C. parapsilosis ATCC 22019 (strain J), as well as for compound 22 against FIG. 9C. C. glabrata ATCC 2001 (strain H), and FIG. 9D. strain J. Fungal strains were treated with no drug (black circles), 1×MIC (white circles), 4×MIC (inverted black triangles), or 8×MIC (white triangles) of compounds 20 or 22, or with 1×MIC (black squares) or 4×MIC (white squares) of VOR. The detection limit of this assay was 100 CFU/mL (represented by the red line in panels A and C).
Time-kill assays. To determine if the antifungal activity of the alkylated piperazine-azole hybrids is fungistatic or fungicidal, we performed time-kill assays over 24-hour periods by using compounds 20 and 22, each against two fungal strains (strains A and J for 20; H and J for 22) (FIG. 9).

For assay [3], the system named is Candida albicans ATCC 10231. Particulars: Table 1; strain A; control azoles FLC, ITC, POS, VOR; previously reported (refs 5, 16); cited from earlier work.
Assay [4] concerns Candida glabrata ATCC 2001. Briefly: MIC determination, strain H. The assay is classed as cell-based. Particulars: Nakaseomyces glabratus, ATCC2001. The protocol:
(§1) The antifungal activity of our new azole compounds 1-9 and 24-41 was first evaluated against a panel of seven Candida albicans strains (A-G), three non-albicans Candida strains […], and three Aspergillus strains (K-M) in a concentration range of 0.03-31.2 μg/mL (Table 1). […] For all of our azole derivatives we report their MIC-0 values against C. albicans ATCC 10231 (strain A) and all Aspergillus strains (K-M), which correspond to complete growth inhibition of these fungi. […] The commercially available antifungals AmB, FLC, ITC, POS, and VOR were used as reference drugs for comparison. The MIC values presented for these five control drugs were either tested herein or correspond to our previously published data^5, 16 as indicated in Table 1.
(§2) Antifungal activity in the absence or presence of serum. The antifungal activity of the newly prepared alkylated piperazine/morpholine-azole hybrids 16-28, of intermediate 14 that we used to verify that only final compounds exert antifungal activity, as well as that of alkylated piperazine/morpholine derivatives 1-10 were first evaluated against a panel of seven C. albicans (ATCC 10231 (A), ATCC 64124(R) (B), ATCC MYA-2876(S) (C), ATCC 90819(R) (D), ATCC MYA-2310(S) (E), ATCC MYA-1237(R) (F), and ATCC MYA-1003(R) (G)), three non-albicans Candida (C. glabrata ATCC 2001 (H), C. krusei ATCC 6258 (I), and C. parapsilosis ATCC 22019 (J)), and three Aspergillus (A. flavus ATCC MYA-3631 (K), A. nidulans ATCC 38163 (L), and A. terreus ATCC MYA-3633 (M)) strains using a concentration range of 0.03-31.3 μg/mL (Table 2).
(§3) Commercially available antifungal agents such as AmB, CAS, FLC, and VOR were used as positive controls for comparison. […] It is important to note that all comparisons to follow will be done by using the MIC values reported in μg/mL as the data were collected that way. However, we also present in parentheses in Table 2 the corresponding values in micromolar.
(§4) We used the commercially available antifungal agents such as AmB, caspofungin (CAS), FLC, and VOR as positive controls for comparison. For derivatives 5-16 as well as the reference drugs AmB and CAS, we reported MIC-0 values, which correspond to no visible growth. […] In this manuscript, we performed all activity comparisons by using the MIC values reported in μg/mL (Note: the corresponding MIC values are also provided in μM into parentheses in Tables 1, 2, S1, and S2).

Assay [5] deals with C. albicans ATCC MYA-2310(S). The experiment in a line: MIC determination, strain E. Conditions: Candida albicans. The assay is classed as cell-based, Candida albicans. As to the method:
as §1, §2, §3, §4

Assay [6] has as its system Aspergillus nidulans ATCC 38163. Briefly: MIC determination, strain L. It is filed as cell-based. The text has this:
For all of our azole derivatives we report their MIC-0 values against C. albicans ATCC 10231 (strain A) and all Aspergillus strains (K-M), which correspond to complete growth inhibition of these fungi. […] The MIC values presented for these five control drugs were either tested herein or correspond to our previously published data^5, 16 as indicated in Table 1.
Antifungal activity in the absence or presence of serum.
It is important to note that all comparisons to follow will be done by using the MIC values reported in μg/mL as the data were collected that way. However, we also present in parentheses in Table 2 the corresponding values in micromolar.
In this manuscript, we performed all activity comparisons by using the MIC values reported in μg/mL (Note: the corresponding MIC values are also provided in μM into parentheses in Tables 1, 2, S1, and S2).

Assay [7] concerns C. albicans ATCC MYA-2310(S). Particulars: Table 1; strain E; control azoles; previously reported (refs 5, 16); cited from earlier work.
In assay [8] the test system is Candida krusei ATCC 6258. Conditions: Table 1; strain I; control azoles; previously reported (refs 5, 16); cited from earlier work.
Assay [9] deals with C. albicans ATCC 90819(R). Conditions: Table 1; strain D; control azoles; previously reported (refs 5, 16); cited from earlier work.
Assay [10] has as its system C. albicans ATCC MYA-2876(S). Conditions: Table 1; strain C; control azoles; previously reported (refs 5, 16); cited from earlier work.
Assay [11] has as its system C. albicans ATCC 10231 (strain A). The experiment in a line: Time-kill assay, strain A. The assay is classed as cell-based, Candida albicans. Particulars: Ex.2 series, compound at 4×MIC, VOR control.
The subject of assay [12] is C. albicans ATCC 90819(R). Briefly: MIC determination, strain D. The assay is classed as cell-based, Candida albicans. Conditions: Candida albicans, ATCC90819. As to the method:
as §1, §2, §3, §4

Where [13] appears, read: read-out: MIC (MIC-2), in parentheses.

Read-outs that look alike come from different tables or passages of the source. Marks after values point to notes of the source that are not given here.

As for `C[C@@H](c1ncncc1F)[C@](O)(Cn1cncn1)c1ccc(F)cc1F` [VOR, voriconazole], the “MIC (MIC-2)” value in [1] is recorded as 0.12^c μg/mL; in assay [3] it was 0.24^c μg/mL; in [7] it was 0.975^c μg/mL; in assay [8], 0.12^c μg/mL; in [9] it was 1.95^c μg/mL; in assay [10] it was 1.95^c μg/mL. For the same compound, the “effect in time-kill assay” value in assay [2] and in assay [11] was “fungistatic” in each case. Also, the minimum inhibitory concentration (MIC) (in general, the lowest concentration that inhibits growth of the organism) in [4] (read-out: MIC (MIC-2)) came out at 0.06 µg/mL; in assay [4] (setting [13]), 0.17 µM; in assay [5] (read-out: MIC (MIC-2)), 0.975 µg/mL; in assay [5] (setting [13]), 2.8 µM; in [6] (ATCC38163, Table 2, strain L, all compounds and controls, read-out: MIC (MIC-0)) it was 0.12 µg/mL; in [6] (ATCC38163, Table 2, strain L, all compounds and controls, read-out: MIC (MIC-0), in parentheses), 0.34 µM. Also, the MIC came to 0.12 µg/mL in assay [6] (ATCC38163, Table 3, Ex.2 compounds, no FBS, read-out: MIC, Aspergillus nidulans ATCC 38163 (L) (no FBS)); 0.12 µg/mL in assay [6] (ATCC38163, read-out: MIC, Aspergillus nidulans ATCC 38163 (L) (+10% FBS), Table 3, Ex.2 compounds, +10% FBS); 1.95 µg/mL in assay [12] (read-out: MIC (MIC-2)); 5.6 µM in assay [12] (setting [13]).
